From ChEMBL document CHEMBL1201862, “PubChem BioAssay data set” (2004)
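48-hour exposure; five concentrations; linearly interpolated endpoints. GI50 is the concentration that inhibits growth by half.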 Active and inactive are the calls of the source. Rule as the data show it: active = GI50 up to about 1.1 µM and inactive = higher.

What was measured:
Test in all cases: NCI anticancer screen, dose series, 48 h
786-0 = tested on: 786-0
A498 = tested on: A498
A549 = tested on: A549
ACHN = tested on: ACHN
BT-549 = tested on: BT-549
CAKI-1 = tested on: CAKI-1
CCRF-CEM = tested on: CCRF-CEM
COLO 205 = tested on: COLO 205
DU-145 = tested on: DU-145
EKVX = tested on: EKVX
HCC 2998 = tested on: HCC 2998
HCT-116 = tested on: HCT-116
HCT-15 = tested on: HCT-15
HL-60 = tested on: HL-60
HOP-62 = tested on: HOP-62
HOP-92 = tested on: HOP-92
HT-29 = tested on: HT-29
Hs-578T = tested on: Hs-578T
IGROV-1 = tested on: IGROV-1
K562 = tested on: K562
KM12 = tested on: KM12
M14 = tested on: M14
MCF7 = tested on: MCF7
MDA-MB-231 = tested on: MDA-MB-231
MDA-MB-435 = tested on: MDA-MB-435
MDA-N = tested on: MDA-N
MOLT-4 = tested on: MOLT-4
Malme-3M = tested on: Malme-3M
NCI-H226 = tested on: NCI-H226
NCI-H23 = tested on: NCI-H23
NCI-H460 = tested on: NCI-H460
NCI-H522 = tested on: NCI-H522
NCI/ADR-RES = tested on: NCI/ADR-RES
OVCAR-3 = tested on: OVCAR-3
OVCAR-4 = tested on: OVCAR-4
OVCAR-5 = tested on: OVCAR-5
OVCAR-8 = tested on: OVCAR-8
PC-3 = tested on: PC-3
RPMI-8226 = tested on: RPMI-8226
RXF 393 = tested on: RXF 393
SF-268 = tested on: SF-268
SF-295 = tested on: SF-295
SF-539 = tested on: SF-539
SK-MEL-28 = tested on: SK-MEL-28
SK-MEL-2 = tested on: SK-MEL-2
SK-MEL-5 = tested on: SK-MEL-5
SK-OV-3 = tested on: SK-OV-3
SN12C = tested on: SN12C
SNB-19 = tested on: SNB-19
SNB-75 = tested on: SNB-75
SR = tested on: SR
SW-620 = tested on: SW-620
T47D = tested on: T47D
TK-10 = tested on: TK-10
U-251 = tested on: U-251
UACC-257 = tested on: UACC-257
UACC-62 = tested on: UACC-62
UO-31 = tested on: UO-31
LOX IMVI = tested on: LOX IMVI

CCCOc1ccc(/C=C/C2=[N+](CCO)CCO2)cc1
GI50 (786-0): > 100 µM (inactive)
GI50 (A498): > 100 µM (inactive)
GI50 (A549): > 100 µM (inactive)
GI50 (ACHN): > 100 µM (inactive)
GI50 (BT-549): > 100 µM (inactive)
GI50 (CAKI-1): > 100 µM (inactive)
GI50 (CCRF-CEM): > 100 µM (inactive)
GI50 (COLO 205): > 100 µM (inactive)
GI50 (DU-145): > 100 µM (inactive)
GI50 (EKVX): > 100 µM (inactive)
GI50 (HCC 2998): > 100 µM (inactive)
GI50 (HCT-116): > 100 µM (inactive)
GI50 (HCT-15): > 100 µM
GI50 (HL-60): > 100 µM (inactive)
GI50 (HOP-62): > 100 µM (inactive)
GI50 (HOP-92): > 100 µM (inactive)
GI50 (HT-29): > 100 µM (inactive)
GI50 (Hs-578T): > 100 µM (inactive)
GI50 (IGROV-1): > 100 µM (inactive)
GI50 (K562): > 100 µM (inactive)
GI50 (KM12): > 100 µM (inactive)
GI50 (M14): > 100 µM (inactive)
GI50 (MCF7): > 100 µM (inactive)
GI50 (MDA-MB-231): > 100 µM (inactive)
GI50 (MDA-MB-435): > 100 µM (inactive)
GI50 (MDA-N): > 100 µM (inactive)
GI50 (MOLT-4): > 100 µM (inactive)
GI50 (Malme-3M): > 100 µM (inactive)
GI50 (NCI-H226): > 100 µM (inactive)
GI50 (NCI-H23): > 100 µM (inactive)
GI50 (NCI-H460): > 100 µM (inactive)
GI50 (NCI-H522): > 100 µM (inactive)
GI50 (NCI/ADR-RES): > 100 µM (inactive)
GI50 (OVCAR-3): > 100 µM (inactive)
GI50 (OVCAR-4): > 100 µM (inactive)
GI50 (OVCAR-5): > 100 µM (inactive)
GI50 (OVCAR-8): > 100 µM (inactive)
GI50 (PC-3): > 100 µM (inactive)
GI50 (RPMI-8226): > 100 µM (inactive)
GI50 (RXF 393): > 100 µM (inactive)
GI50 (SF-268): > 100 µM (inactive)
GI50 (SF-295): > 100 µM (inactive)
GI50 (SF-539): > 100 µM (inactive)
GI50 (SK-MEL-28): > 100 µM (inactive)
GI50 (SK-MEL-2): > 100 µM (inactive)
GI50 (SK-MEL-5): > 100 µM (inactive)
GI50 (SK-OV-3): > 100 µM (inactive)
GI50 (SN12C): > 100 µM (inactive)
GI50 (SNB-19): > 100 µM (inactive)
GI50 (SNB-75): > 100 µM (inactive)
GI50 (SR): > 100 µM (inactive)
GI50 (SW-620): > 100 µM (inactive)
GI50 (T47D): > 100 µM (inactive)
GI50 (TK-10): > 100 µM (inactive)
GI50 (U-251): > 100 µM (inactive)
GI50 (UACC-257): > 100 µM (inactive)
GI50 (UACC-62): > 100 µM (inactive)
GI50 (UO-31): > 100 µM (inactive)

C=Cc1nc2c(Cl)ncnc2n1Cc1ccccc1
GI50 (786-0): 1.6 µM (inactive)
GI50 (A498): 7.13 µM (inactive)
GI50 (A549): 11.2 µM (inactive)
GI50 (ACHN): 1.86 µM (inactive)
GI50 (BT-549): 4.71 µM (inactive)
GI50 (CAKI-1): 1.91 µM (inactive)
GI50 (CCRF-CEM): 2.74 µM (inactive)
GI50 (COLO 205): 1.53 µM (inactive)
GI50 (DU-145): 2.17 µM (inactive)
GI50 (EKVX): 4.7 µM (inactive)
GI50 (HCC 2998): 2.61 µM (inactive)
GI50 (HCT-116): 2.06 µM (inactive)
GI50 (HCT-15): 2.51 µM
GI50 (HL-60): 2.72 µM (inactive)
GI50 (HOP-62): 3.34 µM (inactive)
GI50 (HOP-92): 2.07 µM (inactive)
GI50 (HT-29): 2.62 µM (inactive)
GI50 (Hs-578T): 13.2 µM (inactive)
GI50 (IGROV-1): 3.08 µM (inactive)
GI50 (K562): 3.05 µM (inactive)
GI50 (KM12): 2.84 µM (inactive)
GI50 (LOX IMVI): 2.76 µM (inactive)
GI50 (M14): 3.88 µM (inactive)
GI50 (MCF7): 1.55 µM (inactive)
GI50 (MDA-MB-231): 5.74 µM (inactive)
GI50 (MDA-MB-435): 2.65 µM (inactive)
GI50 (MDA-N): 3.12 µM (inactive)
GI50 (MOLT-4): 2.18 µM (inactive)
GI50 (Malme-3M): 4.03 µM (inactive)
GI50 (NCI-H226): 3.08 µM (inactive)
GI50 (NCI-H23): 3.52 µM (inactive)
GI50 (NCI-H460): 7.8 µM (inactive)
GI50 (NCI-H522): 1.89 µM (inactive)
GI50 (NCI/ADR-RES): 3.7 µM (inactive)
GI50 (OVCAR-3): 2.58 µM (inactive)
GI50 (OVCAR-4): 2.76 µM (inactive)
GI50 (OVCAR-5): 14.7 µM (inactive)
GI50 (OVCAR-8): 3.2 µM (inactive)
GI50 (PC-3): 3.52 µM (inactive)
GI50 (RPMI-8226): 0.839 µM (active)
GI50 (RXF 393): 2.69 µM (inactive)
GI50 (SF-268): 6.35 µM (inactive)
GI50 (SF-295): 15.6 µM (inactive)
GI50 (SF-539): 2.13 µM (inactive)
GI50 (SK-MEL-28): 3.1 µM (inactive)
GI50 (SK-MEL-2): 12.1 µM (inactive)
GI50 (SK-MEL-5): 2.54 µM (inactive)
GI50 (SK-OV-3): 15.3 µM (inactive)
GI50 (SN12C): 6.43 µM (inactive)
GI50 (SNB-19): 14.8 µM (inactive)
GI50 (SNB-75): 13.6 µM (inactive)
GI50 (SR): 2.56 µM (inactive)
GI50 (SW-620): 5.94 µM (inactive)
GI50 (T47D): 2.59 µM (inactive)
GI50 (TK-10): 2.11 µM (inactive)
GI50 (U-251): 10.5 µM (inactive)
GI50 (UACC-257): 2.59 µM (inactive)
GI50 (UACC-62): 6.68 µM (inactive)
GI50 (UO-31): 2.51 µM (inactive)
